In US20250122529A1, “POLYCISTRONIC VECTORS FOR CELL-BASED THERAPIES” (Sana Biotechnology, Inc., priority 2021, published 2025):

How the values were obtained:
[1] = tested on: CyD-CD47 clones 2-G09 and 2-G11; test: CyD kill curve with 5-FC (cell count); format: cell-based
From the text: Hollow triangles represent iPSCs; filled triangles represent differentiated cells.
The bicistronic vector was used to transduce induced pluripotent stem cells (iPSCs), which were then allowed to differentiate. Differentiation of CyD-CD47-expressing clones in 2D was not affected by safety switch expression (data not shown here).

CD47-HSVtk clones [2] = test: HSVtk kill curve with GCV (flow cytometry with counting beads); format: cell-based; settings: various amounts of GCV; after three days
From the text: Calculated IC50 and R square (R^2) values for each clone are also shown.

control clone = test: GCV toxicity in control clone; format: cell-based; settings: tested dose range
CD47-HSVtk clones [3] = settings: range reported in literature; IC50s in CD47-HSVtk clones generally comparable; cited from earlier work
CD22 = CD22 (Homo sapiens, UniProt P20273); settings: affinity matured variant; read-out: CD22 binding affinity; cited from earlier work

With `Nc1nc(=O)[nH]cc1F` [Construct 5-FC, 5-fluorocytosine] the killing ([1]; CyD in the presence of 5-FC, differentiated cells, clones 2-G09 and 2-G11) was “more than 99%” and the IC50 ([1]; differentiated cells relative to iPSCs) was “comparable IC50s relative to iPSCs”.

In the case of `Nc1nc(O)c2ncn(COC(CO)CO)c2n1` [GCV, ganciclovir], the “HSVtk killing (viable cell count %)” value (CD47-HSVtk clones [2]) is given as “dose-response HSVtk killing was achieved”, the GCV toxicity (control clone) is given as “no GCV toxicity” and the IC50 (CD47-HSVtk clones [3]) is given as 10 to 100 nM.

B1: m971-L7: affinity matured variant of m971 (protein)
scFv: QVQLQQSGPGMVKPSQTLSLTCAISGDSVSSNSVAWNWIRQSPSRGLEWLGRTYYRSTWYNDYAVSMKSRITINPDTNKNQFSLQLNSVTPEDTAVYYCAREVTGDLEDAFDIWGQGTMVTVSSGGGGSGGGGSGGGGSDIQMIQSPSSLSASVGDRVTITCRASQTIWSYLNWYRQRPGEAPNLLIYAASSLQSGVPSRFSGRGSGTDFTLTISSLQAEDFATYYCQQSYSIPQTFGQGTKLEIK
modifications: Synthetic: Anti-CD22 m971-L7 scFv entire sequence, with 3xG4S linker
In the case of B1, the Kd (CD22) is listed as under 0.05 nM.
